# Laboratory results: ChEMBL document CHEMBL4665850, “Effect of methoxyflavones contained in Kaempferia parviflora on CRE-mediated transcription in PC12D cells” (Bioorg Med Chem Lett, 2020)
# Activity calls are given as the source filed them. The rule behind the calls is not given here.
# Columns and labels:
# [1] = Cytotoxicity against rat PC12D cells assessed as reduction in cell viability at 30 uM by MTT assay; assay type: cell-based
# [2] = Effect on transcription in rat PC12D cells transfected with pCRE-firefly luciferase and pRL-null-renilla luciferase assessed as renilla luciferase activity at 30 uM by dual luciferase reporter gene assay; assay type: ADME, cell-based
# [3] = system: PC12D; assay: Activation of CRE-mediated transcription in rat PC12D cells transfected with pCRE-firefly luciferase and pRL-null-renilla luciferase assessed as increase in CRE-driven firefly luciferase activity at 30 uM by dual luciferase reporter gene assay; assay type: functional, cell-based
SMILES,Activity [1],Activity [2],Activity [3]
COc1cc(O)c2c(=O)cc(-c3ccccc3)oc2c1 [TECHTOCHRYSIN],Non-Toxic,Non-Toxic,inactive
COc1ccc(-c2cc(=O)c3c(OC)cc(OC)cc3o2)cc1 [TRIMETHYLAPIGENIN],Non-Toxic,Toxic,Active
COc1cc(OC)c2c(=O)c(OC)c(-c3ccc(OC)c(OC)c3)oc2c1,Non-Toxic,Non-Toxic,Active
COc1cc(OC)c2c(=O)cc(-c3ccc(OC)c(OC)c3)oc2c1 [TETRAMETHYLLUTEOLIN],Non-Toxic,Toxic,Active
COc1ccc(-c2oc3cc(OC)cc(O)c3c(=O)c2OC)cc1,Non-Toxic,Non-Toxic,inactive
COc1ccc(-c2cc(=O)c3c(O)cc(OC)cc3o2)cc1 [APIGENIN DIMETHYLETHER],Non-Toxic,Non-Toxic,inactive
COc1cc(O)c2c(=O)c(OC)c(-c3ccc(OC)c(OC)c3)oc2c1 [RETUSIN],Non-Toxic,Non-Toxic,inactive
COc1cc(O)c2c(=O)c(OC)c(-c3ccccc3)oc2c1,Non-Toxic,Non-Toxic,inactive
COc1cc(OC)c2c(=O)cc(-c3ccccc3)oc2c1 [CHRYSIN DIMETHYL ETHER],Non-Toxic,Toxic,Active
